Measured values: ChEMBL document CHEMBL1201862, “PubChem BioAssay data set” (2004)
Activity calls are given as the source filed them.

Key:
Cytochrome P450 3A4 [1] = target: T1, Cytochrome P450 3A4 (Homo sapiens, UniProt P08684)
Cytochrome P450 2C19 = Cytochrome P450 2C19 (Homo sapiens, UniProt P33261); assay: Cytochrome panel assay with activity outcomes. Panel member name: p450-cyp2c19 Compounds with AC50 equal or less than 10 uM are considered active; type: functional; settings: read-out: AC50
Sequence of Cytochrome P450 2C19 (P33261 whole entry): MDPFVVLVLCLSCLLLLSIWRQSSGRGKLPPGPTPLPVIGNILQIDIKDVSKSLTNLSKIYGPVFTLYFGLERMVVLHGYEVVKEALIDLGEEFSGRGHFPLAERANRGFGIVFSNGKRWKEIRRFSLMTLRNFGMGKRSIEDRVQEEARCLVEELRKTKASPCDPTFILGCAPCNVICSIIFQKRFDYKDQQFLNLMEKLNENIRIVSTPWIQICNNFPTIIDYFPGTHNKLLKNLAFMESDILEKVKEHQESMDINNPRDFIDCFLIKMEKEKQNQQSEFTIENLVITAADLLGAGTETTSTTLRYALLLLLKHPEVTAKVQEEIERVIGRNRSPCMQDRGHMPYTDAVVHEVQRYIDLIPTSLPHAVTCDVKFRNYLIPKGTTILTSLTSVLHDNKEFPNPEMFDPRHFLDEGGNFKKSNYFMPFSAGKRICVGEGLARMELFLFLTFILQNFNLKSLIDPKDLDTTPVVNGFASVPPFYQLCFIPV

Cytochrome P450 2C9 = Cytochrome P450 2C9 (Homo sapiens, UniProt P11712)
Sequence of Cytochrome P450 2C9 (P11712 whole entry): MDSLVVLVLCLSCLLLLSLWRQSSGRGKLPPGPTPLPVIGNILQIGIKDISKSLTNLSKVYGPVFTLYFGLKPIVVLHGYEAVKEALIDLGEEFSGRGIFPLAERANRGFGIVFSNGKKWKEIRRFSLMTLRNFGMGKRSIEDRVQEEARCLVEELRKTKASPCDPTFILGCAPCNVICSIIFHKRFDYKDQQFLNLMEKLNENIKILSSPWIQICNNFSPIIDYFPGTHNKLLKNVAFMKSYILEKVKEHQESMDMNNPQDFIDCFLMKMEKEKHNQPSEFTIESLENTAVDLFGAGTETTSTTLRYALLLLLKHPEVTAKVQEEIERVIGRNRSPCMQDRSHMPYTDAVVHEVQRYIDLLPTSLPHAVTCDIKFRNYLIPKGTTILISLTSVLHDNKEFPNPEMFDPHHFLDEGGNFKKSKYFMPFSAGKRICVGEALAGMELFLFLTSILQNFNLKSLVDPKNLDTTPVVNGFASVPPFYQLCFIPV

[2] = target: T2, Short transient receptor potential channel 4 (Mus musculus, UniProt Q9QUQ5); assay: block of DAMGO-driven TRPC4 calcium entry – cell-based, HEK293 TRPC4/mu-opioid, Fluo-4 calcium, dose response (AID 434942); type: functional;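 further: potency of inhibitors blocking the TRPC4 calcium response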
T2 sequence (Q9QUQ5 whole entry): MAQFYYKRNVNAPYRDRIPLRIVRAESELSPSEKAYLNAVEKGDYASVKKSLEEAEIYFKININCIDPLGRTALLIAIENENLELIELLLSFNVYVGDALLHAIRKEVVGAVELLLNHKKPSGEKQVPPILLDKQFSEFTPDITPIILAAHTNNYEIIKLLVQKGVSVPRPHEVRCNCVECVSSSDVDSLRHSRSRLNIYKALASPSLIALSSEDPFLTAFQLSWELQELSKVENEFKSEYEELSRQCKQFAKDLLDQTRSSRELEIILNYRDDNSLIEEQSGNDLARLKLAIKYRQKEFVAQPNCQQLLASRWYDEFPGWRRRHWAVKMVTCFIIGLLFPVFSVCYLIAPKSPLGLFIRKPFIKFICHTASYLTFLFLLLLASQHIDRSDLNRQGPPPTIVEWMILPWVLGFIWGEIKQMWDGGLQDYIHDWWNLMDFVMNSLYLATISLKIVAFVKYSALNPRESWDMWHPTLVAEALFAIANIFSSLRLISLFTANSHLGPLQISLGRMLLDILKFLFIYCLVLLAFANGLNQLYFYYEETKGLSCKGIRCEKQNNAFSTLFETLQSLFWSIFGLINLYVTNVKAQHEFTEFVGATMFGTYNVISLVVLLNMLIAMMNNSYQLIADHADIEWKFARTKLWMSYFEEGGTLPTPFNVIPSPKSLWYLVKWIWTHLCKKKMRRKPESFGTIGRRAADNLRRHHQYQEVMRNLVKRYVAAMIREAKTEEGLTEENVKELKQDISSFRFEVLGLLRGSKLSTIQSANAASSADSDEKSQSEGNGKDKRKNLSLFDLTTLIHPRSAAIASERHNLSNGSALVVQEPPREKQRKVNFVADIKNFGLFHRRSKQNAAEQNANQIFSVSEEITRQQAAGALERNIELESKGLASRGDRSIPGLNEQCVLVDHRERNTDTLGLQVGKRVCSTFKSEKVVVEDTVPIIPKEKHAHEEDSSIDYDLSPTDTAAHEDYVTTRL

HEK293 [3] = assay: NOD2 signaling inhibitors in MDP-stimulated cells, cell-based, uHTS, luminescence (AID 2001); type: functional; settings: Homo sapiens
HEK293 [4] = assay: cells; type: functional, cell-based; settings: Homo sapiens
HEK293 [5] = assay: inhibition of NOD1-driven NF-kB reporter – cell-based, luminescence, uHTS, primary screen (AID 1578); type: functional; settings: Homo sapiens
HEK293 [6] = assay: cells; type: functional, cell-based; settings: Homo sapiens; remark: listed apart in the source
HEK293 [7] = assay: cells; type: functional, cell-based; settings: Homo sapiens; remark: listed apart in the source
[8] = target: Nucleotide-binding oligomerization domain-containing protein 2 (Homo sapiens, UniProt Q9HC29); assay: inhibition of NOD2-driven NF-kB reporter – cell-based, luminescence, uHTS, HEK293 (AID 1566); type: functional
Sequence of Nucleotide-binding oligomerization domain-containing protein 2 (Q9HC29 whole entry, the tested form may be a part): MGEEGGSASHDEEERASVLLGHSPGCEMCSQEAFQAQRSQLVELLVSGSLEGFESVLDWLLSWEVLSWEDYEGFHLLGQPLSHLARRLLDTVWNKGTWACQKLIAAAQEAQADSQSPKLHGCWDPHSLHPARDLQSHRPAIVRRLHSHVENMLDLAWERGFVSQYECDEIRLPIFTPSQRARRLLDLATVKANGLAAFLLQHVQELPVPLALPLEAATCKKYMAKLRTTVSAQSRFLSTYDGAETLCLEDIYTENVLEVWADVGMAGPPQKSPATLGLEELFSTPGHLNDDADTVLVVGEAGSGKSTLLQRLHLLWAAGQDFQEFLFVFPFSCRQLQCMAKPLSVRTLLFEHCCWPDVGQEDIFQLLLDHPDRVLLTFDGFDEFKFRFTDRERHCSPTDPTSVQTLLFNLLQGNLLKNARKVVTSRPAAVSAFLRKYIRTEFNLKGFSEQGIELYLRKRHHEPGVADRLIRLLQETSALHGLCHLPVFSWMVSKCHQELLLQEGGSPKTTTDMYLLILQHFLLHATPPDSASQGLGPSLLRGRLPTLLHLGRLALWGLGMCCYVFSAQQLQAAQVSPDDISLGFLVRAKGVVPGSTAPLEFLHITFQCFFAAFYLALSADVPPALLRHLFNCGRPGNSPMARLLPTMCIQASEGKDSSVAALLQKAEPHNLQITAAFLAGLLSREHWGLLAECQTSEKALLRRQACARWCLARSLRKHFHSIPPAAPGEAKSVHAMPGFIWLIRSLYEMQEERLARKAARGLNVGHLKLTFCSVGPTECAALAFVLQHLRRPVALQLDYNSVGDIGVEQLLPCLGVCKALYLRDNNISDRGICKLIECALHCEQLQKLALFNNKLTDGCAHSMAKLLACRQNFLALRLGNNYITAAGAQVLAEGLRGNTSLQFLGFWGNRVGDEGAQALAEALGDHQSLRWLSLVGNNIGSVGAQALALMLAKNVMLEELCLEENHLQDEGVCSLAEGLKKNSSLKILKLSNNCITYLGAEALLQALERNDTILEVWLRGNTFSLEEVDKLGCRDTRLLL

Cytochrome P450 3A4 [9] = target: T1, Cytochrome P450 3A4; settings: Potency

T1 sequence (P08684 whole entry): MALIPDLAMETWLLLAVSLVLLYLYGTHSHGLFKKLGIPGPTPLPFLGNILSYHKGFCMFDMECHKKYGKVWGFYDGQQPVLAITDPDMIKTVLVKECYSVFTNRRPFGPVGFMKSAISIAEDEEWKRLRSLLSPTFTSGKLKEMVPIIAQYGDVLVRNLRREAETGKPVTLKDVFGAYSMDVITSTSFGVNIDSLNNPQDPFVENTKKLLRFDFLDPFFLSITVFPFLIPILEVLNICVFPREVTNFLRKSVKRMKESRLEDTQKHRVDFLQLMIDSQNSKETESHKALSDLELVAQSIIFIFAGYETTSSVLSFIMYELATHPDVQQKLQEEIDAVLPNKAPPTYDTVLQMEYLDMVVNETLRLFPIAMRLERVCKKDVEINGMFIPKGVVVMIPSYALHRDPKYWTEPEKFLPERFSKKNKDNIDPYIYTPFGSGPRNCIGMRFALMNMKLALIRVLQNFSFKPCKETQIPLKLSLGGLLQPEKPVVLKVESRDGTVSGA

## Cc1cccc(Oc2coc3cc(OC(=O)c4cc5ccccc5oc4=O)ccc3c2=O)c1
Cytochrome P450 3A4 [1]
  AC50: 39.8 µM (inconclusive)
Cytochrome P450 2C19
  AC50: 25.1 µM (inconclusive)
Cytochrome P450 2C9
  AC50: inconclusive

## O=S(=O)(CC(O)COc1ccccc1Cl)c1ccccc1 (stereo not drawn)
Cytochrome P450 2C9
  AC50: inconclusive

## O=C(c1cccc(C(F)(F)F)c1)C1CCCN(Cc2ccccc2O)C1 (stereo not drawn)
[2]
  EC50: 2.37 µM (active)

## COc1ccc(CNC(=O)c2ccc3ccccc3n2)cc1OC
HEK293 [3]
  IC50: > 20 µM (inactive)
HEK293 [4]
  IC50: 14.5 µM (active)
HEK293 [5]
  EC50: 7.83 µM (active)
HEK293 [6]
  IC50: > 20 µM (inactive)
HEK293 [7]
  IC50: > 20 µM (inactive)
[8]
  EC50: 11.7 µM (active)

## Cc1ccccc1CN1CCCC(C(=O)Nc2ccccc2Oc2cccnc2)C1 (stereo not drawn)
[2]
  EC50: 5.31 µM (active)

## COc1ccccc1-c1oc2ccccc2c(=O)c1OC
Cytochrome P450 3A4 [9]
  AC50: 20 µM (inconclusive)

## CN(C)C(=O)c1ccc(-n2nc(C(F)(F)F)c3c2CCCC3)cc1
Cytochrome P450 2C9
  AC50: inconclusive

## O=C1CN=C(Nc2cccc(C(F)(F)F)c2)N1C1CCCC1
[2]
  EC50: 6.68 µM (active)

## COc1cc(-c2oc3cc(O)ccc3c(=O)c2O)ccc1O [GERALDOL]
Cytochrome P450 3A4 [9]
  AC50: 10 µM (inconclusive)

## CC(C(=O)O)c1ccc(N2Cc3ccccc3C2=O)cc1 (stereo not drawn) [INDOPROFEN]
Cytochrome P450 3A4 [9]
  AC50: 39.8 µM (inconclusive)

## CNC(=O)N(C)c1nnc(C(C)(C)C)s1 [TEBUTHIURON]
Cytochrome P450 3A4 [9]
  AC50: 12.6 µM (inconclusive)
